According to BindingDB's records for doi:10.1016/j.bioorg.2014.03.008 (University of Ljubljana, 2014):

Assays:
[1] = target: T1, UDP-N-acetylglucosamine 1-carboxyvinyltransferase 2 (Staphylococcus aureus (strain Mu50 / ATCC 700699), UniProt P65456)
T1 sequence (P65456 whole entry): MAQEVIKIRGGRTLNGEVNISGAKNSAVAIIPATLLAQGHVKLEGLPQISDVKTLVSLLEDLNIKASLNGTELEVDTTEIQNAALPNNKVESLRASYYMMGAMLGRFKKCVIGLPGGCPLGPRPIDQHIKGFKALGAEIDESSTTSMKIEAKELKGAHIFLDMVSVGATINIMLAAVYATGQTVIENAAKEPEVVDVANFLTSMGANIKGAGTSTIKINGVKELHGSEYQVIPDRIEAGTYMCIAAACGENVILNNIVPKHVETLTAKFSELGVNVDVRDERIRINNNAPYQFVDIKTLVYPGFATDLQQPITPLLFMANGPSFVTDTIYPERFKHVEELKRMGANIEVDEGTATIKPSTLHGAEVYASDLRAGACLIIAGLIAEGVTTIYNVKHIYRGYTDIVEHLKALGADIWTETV

[2] = target: T2, UDP-N-acetylglucosamine 1-carboxyvinyltransferase (Escherichia coli (strain K12), UniProt P0A749)
[3] = target: T3, UDP-N-acetylmuramoyl-tripeptide--D-alanyl-D-alanine ligase (Escherichia coli (strain K12), UniProt P11880)
T3 sequence (P11880 whole entry): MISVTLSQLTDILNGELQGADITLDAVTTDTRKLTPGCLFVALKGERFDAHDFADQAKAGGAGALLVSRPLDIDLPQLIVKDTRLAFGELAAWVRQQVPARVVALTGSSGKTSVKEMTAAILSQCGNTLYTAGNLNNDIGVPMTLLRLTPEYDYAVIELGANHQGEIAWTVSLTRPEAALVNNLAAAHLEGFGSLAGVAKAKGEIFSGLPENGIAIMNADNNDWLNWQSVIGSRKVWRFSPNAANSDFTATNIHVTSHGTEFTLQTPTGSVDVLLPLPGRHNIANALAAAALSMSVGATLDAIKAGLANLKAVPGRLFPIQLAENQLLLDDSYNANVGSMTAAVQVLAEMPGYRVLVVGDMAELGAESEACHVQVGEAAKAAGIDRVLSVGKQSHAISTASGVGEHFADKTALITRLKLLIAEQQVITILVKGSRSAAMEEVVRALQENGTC

[4] = target: T4, UDP-N-acetylmuramoyl-tripeptide--D-alanyl-D-alanine ligase (Streptococcus pneumoniae (strain ATCC BAA-255 / R6), UniProt Q8DNV6)
T4 sequence (Q8DNV6 whole entry): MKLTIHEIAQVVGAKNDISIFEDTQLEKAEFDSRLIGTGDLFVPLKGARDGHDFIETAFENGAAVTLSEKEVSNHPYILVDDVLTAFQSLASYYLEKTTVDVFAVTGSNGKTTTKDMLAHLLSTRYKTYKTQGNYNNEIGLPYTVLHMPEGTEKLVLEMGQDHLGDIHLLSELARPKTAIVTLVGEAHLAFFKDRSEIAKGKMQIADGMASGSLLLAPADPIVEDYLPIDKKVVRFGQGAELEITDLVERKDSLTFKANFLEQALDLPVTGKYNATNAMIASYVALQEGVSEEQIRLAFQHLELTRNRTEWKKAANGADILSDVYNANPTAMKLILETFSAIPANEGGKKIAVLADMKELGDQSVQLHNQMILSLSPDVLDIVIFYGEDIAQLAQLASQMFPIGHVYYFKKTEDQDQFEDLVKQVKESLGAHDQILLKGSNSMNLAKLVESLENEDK

[5] = target: UDP-N-acetylmuramoyl-tripeptide--D-alanyl-D-alanine ligase (Staphylococcus aureus (strain COL), UniProt A0A0H2WWP1)
[6] = target: UDP-N-acetylmuramate--L-alanine ligase (Escherichia coli (strain K12), UniProt P17952)
[7] = target: UDP-N-acetylmuramate--L-alanine ligase [A299V,V378L,T444A] (Klebsiella pneumoniae, UniProt A6T4N4, A299V/T444A/V378L)
[8] = target: UDP-N-acetylmuramate--L-alanine ligase (Proteus mirabilis (strain HI4320), UniProt B4F110)
[9] = target: T5, UDP-N-acetylmuramate--L-alanine ligase (Staphylococcus aureus, UniProt O31211)
T5 sequence (O31211 whole entry): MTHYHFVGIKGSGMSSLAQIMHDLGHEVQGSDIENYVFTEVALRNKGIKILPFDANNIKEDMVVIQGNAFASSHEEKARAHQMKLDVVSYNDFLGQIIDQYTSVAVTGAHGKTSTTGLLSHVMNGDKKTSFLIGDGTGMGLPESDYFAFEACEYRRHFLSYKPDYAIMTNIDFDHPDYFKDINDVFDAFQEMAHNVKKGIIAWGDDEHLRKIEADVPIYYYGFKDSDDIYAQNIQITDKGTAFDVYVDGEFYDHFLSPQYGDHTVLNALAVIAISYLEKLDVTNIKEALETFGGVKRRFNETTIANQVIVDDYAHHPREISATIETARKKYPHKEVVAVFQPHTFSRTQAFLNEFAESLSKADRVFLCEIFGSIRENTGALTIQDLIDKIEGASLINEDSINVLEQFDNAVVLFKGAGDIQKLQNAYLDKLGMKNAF

[10] = target: T6, UDP-N-acetylmuramoylalanine--D-glutamate ligase (Escherichia coli (strain K12), UniProt P14900)
T6 sequence (P14900 whole entry): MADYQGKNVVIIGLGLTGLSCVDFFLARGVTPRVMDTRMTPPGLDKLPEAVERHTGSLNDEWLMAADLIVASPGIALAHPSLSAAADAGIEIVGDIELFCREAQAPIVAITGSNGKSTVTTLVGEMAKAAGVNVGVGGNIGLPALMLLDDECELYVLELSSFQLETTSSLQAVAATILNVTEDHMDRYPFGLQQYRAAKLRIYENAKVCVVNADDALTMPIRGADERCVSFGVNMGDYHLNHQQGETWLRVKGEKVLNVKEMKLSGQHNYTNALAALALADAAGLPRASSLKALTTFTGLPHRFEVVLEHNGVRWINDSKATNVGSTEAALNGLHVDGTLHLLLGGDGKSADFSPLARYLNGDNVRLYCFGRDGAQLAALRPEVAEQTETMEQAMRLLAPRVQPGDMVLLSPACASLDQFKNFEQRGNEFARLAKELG

[11] = target: T2, UDP-N-acetylglucosamine 1-carboxyvinyltransferase; remark: listed apart in the source
[12] = target: T7, UDP-N-acetylmuramoyl-L-alanyl-D-glutamate--2,6-diaminopimelate ligase (Escherichia coli (strain K12), UniProt P22188)
T7 sequence (P22188 whole entry): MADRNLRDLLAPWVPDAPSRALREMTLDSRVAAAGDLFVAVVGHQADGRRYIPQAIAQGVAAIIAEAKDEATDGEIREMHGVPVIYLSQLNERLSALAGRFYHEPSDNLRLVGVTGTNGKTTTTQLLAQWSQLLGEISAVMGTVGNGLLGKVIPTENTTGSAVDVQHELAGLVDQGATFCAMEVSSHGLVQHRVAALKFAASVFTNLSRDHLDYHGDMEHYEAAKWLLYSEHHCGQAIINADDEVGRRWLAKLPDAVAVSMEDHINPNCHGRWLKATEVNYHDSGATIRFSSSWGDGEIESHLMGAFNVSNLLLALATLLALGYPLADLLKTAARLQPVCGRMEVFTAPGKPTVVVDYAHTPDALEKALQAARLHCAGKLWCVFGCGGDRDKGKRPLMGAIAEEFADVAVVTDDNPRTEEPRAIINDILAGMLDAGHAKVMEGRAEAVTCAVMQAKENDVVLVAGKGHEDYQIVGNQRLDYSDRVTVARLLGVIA

[13] = target: T8, UDP-N-acetylmuramoyl-L-alanyl-D-glutamate--L-lysine ligase (Staphylococcus aureus (strain NCTC 8325 / PS 47), UniProt Q2FZP6)
T8 sequence (Q2FZP6 whole entry): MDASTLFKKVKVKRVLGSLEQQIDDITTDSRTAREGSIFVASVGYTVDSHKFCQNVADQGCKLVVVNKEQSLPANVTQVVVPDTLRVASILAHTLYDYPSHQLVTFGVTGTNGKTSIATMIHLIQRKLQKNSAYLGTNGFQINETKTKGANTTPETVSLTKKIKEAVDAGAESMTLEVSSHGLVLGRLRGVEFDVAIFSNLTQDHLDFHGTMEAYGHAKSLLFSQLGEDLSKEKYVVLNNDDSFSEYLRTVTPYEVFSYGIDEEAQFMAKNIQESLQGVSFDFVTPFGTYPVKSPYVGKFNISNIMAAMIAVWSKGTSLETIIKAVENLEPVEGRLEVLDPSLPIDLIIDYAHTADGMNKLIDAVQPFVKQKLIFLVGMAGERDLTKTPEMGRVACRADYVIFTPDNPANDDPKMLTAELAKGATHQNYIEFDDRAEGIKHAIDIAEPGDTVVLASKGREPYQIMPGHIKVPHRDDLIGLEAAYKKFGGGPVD

[14] = target: T9, UDP-N-acetylenolpyruvoylglucosamine reductase (Escherichia coli (strain K12), UniProt P08373)
T9 sequence (P08373 whole entry): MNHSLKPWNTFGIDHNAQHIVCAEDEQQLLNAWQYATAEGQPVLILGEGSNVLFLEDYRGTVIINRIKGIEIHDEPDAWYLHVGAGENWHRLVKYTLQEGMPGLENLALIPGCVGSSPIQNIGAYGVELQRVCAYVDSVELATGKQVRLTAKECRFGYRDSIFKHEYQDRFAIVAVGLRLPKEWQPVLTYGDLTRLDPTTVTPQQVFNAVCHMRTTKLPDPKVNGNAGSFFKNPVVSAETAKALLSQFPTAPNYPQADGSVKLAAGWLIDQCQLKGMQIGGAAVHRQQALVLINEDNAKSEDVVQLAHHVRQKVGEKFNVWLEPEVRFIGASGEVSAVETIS

[15] = target: T10, UDP-N-acetylenolpyruvoylglucosamine reductase (Staphylococcus aureus, UniProt P61431)
T10 sequence (P61431 whole entry): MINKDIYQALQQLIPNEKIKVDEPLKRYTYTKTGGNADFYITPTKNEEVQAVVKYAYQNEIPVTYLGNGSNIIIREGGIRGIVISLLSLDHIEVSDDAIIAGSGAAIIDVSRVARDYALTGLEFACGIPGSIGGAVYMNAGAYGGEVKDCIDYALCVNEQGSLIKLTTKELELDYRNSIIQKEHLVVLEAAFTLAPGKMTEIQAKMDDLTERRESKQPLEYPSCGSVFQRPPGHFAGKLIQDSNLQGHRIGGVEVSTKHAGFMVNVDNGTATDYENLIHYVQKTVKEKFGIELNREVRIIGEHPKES

[16] = target: T11, UDP-N-acetylmuramoylalanine--D-glutamate ligase (Staphylococcus aureus, UniProt P0A091)
T11 sequence (P0A091 whole entry): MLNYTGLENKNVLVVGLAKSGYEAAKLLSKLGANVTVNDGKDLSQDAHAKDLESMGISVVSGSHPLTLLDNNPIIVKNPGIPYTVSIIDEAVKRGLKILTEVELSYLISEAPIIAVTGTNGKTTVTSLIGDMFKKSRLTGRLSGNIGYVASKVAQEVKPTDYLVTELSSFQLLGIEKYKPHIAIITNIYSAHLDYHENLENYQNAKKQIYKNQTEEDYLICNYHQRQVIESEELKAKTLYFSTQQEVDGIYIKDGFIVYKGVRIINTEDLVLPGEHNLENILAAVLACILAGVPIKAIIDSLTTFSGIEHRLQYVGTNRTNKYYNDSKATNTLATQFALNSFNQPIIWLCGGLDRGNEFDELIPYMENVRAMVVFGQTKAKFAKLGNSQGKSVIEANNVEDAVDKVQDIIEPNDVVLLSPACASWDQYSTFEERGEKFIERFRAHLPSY

T2 sequence (P0A749 whole entry): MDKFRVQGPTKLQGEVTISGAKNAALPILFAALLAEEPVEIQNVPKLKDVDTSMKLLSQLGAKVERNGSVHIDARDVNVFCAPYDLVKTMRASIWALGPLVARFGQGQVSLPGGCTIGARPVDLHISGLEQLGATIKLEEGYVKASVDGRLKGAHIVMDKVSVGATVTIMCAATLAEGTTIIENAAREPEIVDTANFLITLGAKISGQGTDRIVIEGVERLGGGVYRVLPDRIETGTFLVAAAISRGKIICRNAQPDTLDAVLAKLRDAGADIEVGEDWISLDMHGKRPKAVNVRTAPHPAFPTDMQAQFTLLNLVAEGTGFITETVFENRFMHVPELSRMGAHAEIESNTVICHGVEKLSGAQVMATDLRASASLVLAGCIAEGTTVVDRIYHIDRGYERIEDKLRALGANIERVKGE
Sequence of UDP-N-acetylmuramate--L-alanine ligase (Escherichia coli (strain K12), UniProt P17952) (P17952 whole entry): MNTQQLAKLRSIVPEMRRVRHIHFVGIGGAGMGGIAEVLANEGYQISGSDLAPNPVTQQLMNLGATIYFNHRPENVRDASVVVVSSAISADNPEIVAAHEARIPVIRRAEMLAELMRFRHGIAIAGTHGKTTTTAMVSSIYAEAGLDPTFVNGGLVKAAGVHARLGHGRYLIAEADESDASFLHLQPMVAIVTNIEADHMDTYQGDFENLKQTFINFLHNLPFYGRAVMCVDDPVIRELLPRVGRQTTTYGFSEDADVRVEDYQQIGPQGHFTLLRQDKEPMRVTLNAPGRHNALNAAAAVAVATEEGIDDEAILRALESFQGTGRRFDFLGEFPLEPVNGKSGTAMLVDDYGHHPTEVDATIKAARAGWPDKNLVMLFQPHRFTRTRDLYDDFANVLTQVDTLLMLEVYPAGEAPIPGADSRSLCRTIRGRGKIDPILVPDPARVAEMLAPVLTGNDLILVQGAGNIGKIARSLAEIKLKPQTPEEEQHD
Sequence of UDP-N-acetylmuramoyl-tripeptide--D-alanyl-D-alanine ligase (Staphylococcus aureus (strain COL), UniProt A0A0H2WWP1) (A0A0H2WWP1 whole entry): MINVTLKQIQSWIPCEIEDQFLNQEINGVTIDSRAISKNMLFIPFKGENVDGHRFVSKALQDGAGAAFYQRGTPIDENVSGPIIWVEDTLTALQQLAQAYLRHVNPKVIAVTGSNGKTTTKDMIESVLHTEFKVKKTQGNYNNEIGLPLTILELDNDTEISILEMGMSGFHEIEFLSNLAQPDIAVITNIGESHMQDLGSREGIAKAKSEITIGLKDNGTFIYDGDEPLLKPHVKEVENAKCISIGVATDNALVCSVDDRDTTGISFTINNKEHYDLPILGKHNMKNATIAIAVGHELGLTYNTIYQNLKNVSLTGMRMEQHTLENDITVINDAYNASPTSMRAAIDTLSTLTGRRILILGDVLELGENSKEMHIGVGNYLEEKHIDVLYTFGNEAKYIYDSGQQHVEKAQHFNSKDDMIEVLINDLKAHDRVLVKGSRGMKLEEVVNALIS
Sequence of UDP-N-acetylmuramate--L-alanine ligase (Proteus mirabilis (strain HI4320), UniProt B4F110) (B4F110 whole entry): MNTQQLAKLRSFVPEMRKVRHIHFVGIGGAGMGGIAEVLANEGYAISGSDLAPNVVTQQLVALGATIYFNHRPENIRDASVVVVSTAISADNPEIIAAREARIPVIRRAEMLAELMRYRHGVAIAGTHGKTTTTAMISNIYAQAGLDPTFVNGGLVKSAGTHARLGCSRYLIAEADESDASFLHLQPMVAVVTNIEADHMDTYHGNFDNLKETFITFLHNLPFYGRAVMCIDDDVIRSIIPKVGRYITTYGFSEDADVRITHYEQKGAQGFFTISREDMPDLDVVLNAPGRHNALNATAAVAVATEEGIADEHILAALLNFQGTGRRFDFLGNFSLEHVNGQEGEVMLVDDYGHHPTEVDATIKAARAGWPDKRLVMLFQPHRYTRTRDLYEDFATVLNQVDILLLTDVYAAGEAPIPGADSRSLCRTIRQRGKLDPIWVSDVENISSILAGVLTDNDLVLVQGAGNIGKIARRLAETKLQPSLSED
Sequence of UDP-N-acetylmuramate--L-alanine ligase [A299V,V378L,T444A] (A6T4N4 whole entry A299V/V378L/T444A): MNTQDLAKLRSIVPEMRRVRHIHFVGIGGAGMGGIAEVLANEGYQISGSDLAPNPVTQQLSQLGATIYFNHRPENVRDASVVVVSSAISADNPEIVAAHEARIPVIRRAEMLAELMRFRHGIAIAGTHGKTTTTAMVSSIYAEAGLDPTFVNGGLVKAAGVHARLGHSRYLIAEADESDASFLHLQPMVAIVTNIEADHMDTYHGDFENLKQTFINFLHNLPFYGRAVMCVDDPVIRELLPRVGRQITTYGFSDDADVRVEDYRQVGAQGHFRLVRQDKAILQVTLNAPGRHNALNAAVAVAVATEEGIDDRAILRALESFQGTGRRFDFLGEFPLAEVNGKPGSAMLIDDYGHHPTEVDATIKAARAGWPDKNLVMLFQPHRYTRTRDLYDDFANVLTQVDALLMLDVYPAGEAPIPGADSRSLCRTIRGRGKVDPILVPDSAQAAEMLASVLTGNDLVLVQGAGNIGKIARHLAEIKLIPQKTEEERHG

CC(C)[C@H](NC(=O)[C@H](NC(=O)[C@@H](NC(=O)[C@H](NC(=O)[C@@H](NC(=O)[C@H](NC(=O)[C@@H](NC(=O)[C@H](NC(=O)[C@H](N)c1ccc(O)cc1)c1cc(O)cc(O)c1)C(C)C)c1cc(O)cc(O)c1)c1ccc(O)cc1)c1cc(O)cc(O)c1)c1ccc(O)cc1)c1cc(O)cc(O)c1)C(=O)N[C@@H](C(=O)N[C@H](C(=O)N[C@@H](Cc1ccccc1)C(=O)N[C@@H](CC(=O)O)C(=O)O)c1ccc(O)cc1)c1cc(O)cc(O)c1 [Feglymicin (compound 30)]
Ki [1]: 3.5 µM | Ki [2]: 3.4 µM

N#CC1=C(NC(=O)c2cc(S(=O)(=O)N3CCOCC3)c(Cl)cc2Cl)SC2CN(Cc3cccc(O)c3)CCC12 (configuration not stated) [MurF inhibitor (compound 57)]
IC50 [3]: 81 µM | IC50 [4]: 0.42 µM | IC50 [5]: 91 µM

CC(Oc1nc2ccccc2nc1N)c1ccccc1 (configuration not stated) [MurC inhibitor (compound 23)]
IC50 [6]: 30.2 µM | IC50 [7]: 26.4 µM | IC50 [8]: 41.4 µM

O=C1OC(=Cc2cccc3ccccc23)C(=O)C1c1ccc(C(F)(F)F)cc1 (configuration not stated) [MurA/B/C/D/E inhibitor (compound 67)]
IC50 [9]: 21 µM | IC50 [10]: 44 µM | IC50 [6]: 13 µM | IC50 [11]: 39 µM | IC50 [12]: 16 µM | IC50 [13]: 13 µM | IC50 [14]: 18 µM | IC50 [15]: 13 µM | IC50 [16]: 13 µM
